Assay results: patent US20130158035A1, “[…] COMPOUNDS” (Brigham Young University, priority 2010, published 2013)

test system: MDCK cells; assay: HGF-induced epithelial-mesenchymal transition / migration of MDCK cells on transwell filters (crystal violet densitometry); assay type: cell-based; conditions: Canis lupus familiaris, MDCK, 24 h, Table 3, 10 μM compound, then HGF, percentage like untreated controls (unstimulated cells = maximal effect, HGF only = nil)
Protocol: MDCK cells were seeded at confluency into the wells of a transwell filter in DMEM with 10% fetal bovine serum. Cells were cultured for 24 hours. Test compounds, dissolved in DMSO, were added to each test well to a 10 μM final concentration, and then hepatocyte growth factor (HGF) was then added. The MDCK cells were cultured for 24 hours. Concurrently, controls treated with and without HGF and with no test compounds were also prepared.
After post-HGF addition culturing, transwell filters were prepared by repeated washing using ice cold PBS. The cells were then fixed with paraformaldehyde (3.7%) on ice for 15 minutes to the filters. After fixation, the transwell filters were washed repeatedly with PBS followed by staining with crystal violet for 15 minutes. The transwell filters were washed again with distilled water.
The upper surface of the transwell filters were swabbed using a cotton-tipped probe. The filters were photographed using a gel documentation system. Densitometry measurements were made on the test samples and compared with control samples.

| SMILES | inhibition at 10 µM |
| --- | --- |
| NC(=O)c1ccccc1/N=C/c1cccc(Cl)c1Cl [Compound A-1] | 94% |
| NC(=O)c1ccccc1/N=C/c1ccccc1Cl [Compound A-2] | 75.7% |
| NC(=O)c1ccccc1/N=C/c1cccc2ccccc12 [Compound A-3] | 87.8% |
| COc1cccc(/C=N/c2ccccc2C(N)=O)c1O [Compound A-4] | 20.9% |
| NC(=O)c1ccccc1/N=C/c1cccc(O)c1O [Compound A-5] | 48.8% |
| NC(=O)c1ccccc1/N=C/c1ccc2ccccc2c1 [Compound A-6] | > 5% |
| NC(=O)c1ccccc1/N=C/c1ccccc1[N+](=O)[O-] [Compound A-7] | 11.7% |
| NC(=O)c1ccccc1/N=C/c1cccc(O)c1 [Compound A-8] | 19.7% |
| NC(=O)c1ccccc1/N=C/c1cccc(Cl)c1 [Compound A-9] | 96.4% |
| Cc1ccc(/C=N/c2ccccc2C(N)=O)s1 [Compound A-10] | 91.8% |
| NC(=O)c1ccccc1/N=C/c1ccco1 [Compound A-11] | 27.9% |
| NC(=O)c1ccccc1/N=C/c1ccc(Br)s1 [Compound A-12] | 17.5% |
| Cc1ccc(/C=N/c2ccccc2C(N)=O)o1 [Compound A-13] | 11.2% |
| CC(C)c1ccc(/C=N/c2ccccc2C(N)=O)cc1 [Compound A-14] | < 5% |
| COc1ccc(/C=N/c2ccccc2C(N)=O)cc1 [Compound A-15] | < 5% |
| NC(=O)c1ccccc1/N=C/c1ccc(Cl)cc1Cl [Compound A-18] | < 5% |
| COc1cc(CNc2ccc(C)c(Cl)c2)cc(Br)c1OC [Compound A-19] | > 5% |
| COc1cc(CNc2cc(C(=O)O)ccc2C)cc(Br)c1OC [Compound A-22] | 33.1% |
| COc1cc(CNc2ccc(N3CCOCC3)cc2)cc(Br)c1OC [Compound A-23] | 31.9% |
| COc1cc(CNc2ccc(N3CCOCC3)c(C(=O)O)c2)cc(Br)c1OC [Compound A-25] | < 5% |

same assay, conditions: Canis lupus familiaris, MDCK, 24 h, Table 4, 10 μM compound, then HGF, percentage like untreated controls (unstimulated cells = maximal effect, HGF only = nil)

| SMILES | inhibition at 10 µM |
| --- | --- |
| Cc1nc(NC(=O)COc2ccc([N+](=O)[O-])cc2)ccc1I [Compound B-2] | 96.9% |
| Cc1nc(NC(=O)c2cccc([N+](=O)[O-])c2)ccc1I [Compound B-3] | 95.9% |
| Cc1nc(NC(=O)c2cc([N+](=O)[O-])ccc2N2CCOCC2)ccc1I [Compound B-4] | 31.7% |

same assay, conditions: Table 2; 10 μM compound, then HGF, 24 hours; percentage like untreated controls (unstimulated cells = maximal effect, HGF only = nil)

| SMILES | Assay Value |
| --- | --- |
| O=C1CC(c2cc3c(cc2[N+](=O)[O-])OCO3)c2cc3c(cc2N1)CCC3 (centres unmarked) [Compound 91] | <5% |
| COc1cccc(C2CC(=O)Nc3cc4c(cc32)CCC4)c1OC (centres unmarked) [Compound 92] | <5% |
| O=C1CC(c2cc3c(cc2[N+](=O)[O-])OCO3)c2cc3c(cc2N1)CCC3 (centres unmarked) [Compound 93] | <5% |
| O=C1CC(c2ccccc2C(F)(F)F)c2cc3c(cc2N1)CCC3 (centres unmarked) [Compound 94] | <5% |
| O=C1CC(c2cccc(Br)c2)c2cc3c(cc2N1)CCC3 (centres unmarked) [Compound 95] | <5% |
| O=C1CC(c2cccc(Cl)c2)c2cc3c(cc2N1)CCC3 (centres unmarked) [Compound 96] | <5% |
| O=C1CC(c2ccc(Cl)cc2Cl)c2cc3c(cc2N1)CCC3 (centres unmarked) [Compound 97] | <5% |
| O=C1CC(c2ccc([N+](=O)[O-])cc2)c2cc3c(cc2N1)CCC3 (centres unmarked) [Compound 98] | <5% |
| COc1cccc(C2CC(=O)Nc3cc4c(cc32)CCC4)c1 (centres unmarked) [Compound 99] | <5% |

same assay, conditions: Table 3; 10 μM compound, then HGF, 24 hours; percentage like untreated controls (unstimulated cells = maximal effect, HGF only = nil)

| SMILES | Assay Value |
| --- | --- |
| NC(=O)c1ccccc1/N=C/c1ccc2ccccc2c1 [Compound A-16] | <5% |
| COc1cc(CNc2ccc(C)c(Cl)c2)cc(I)c1OC [Compound A-20] | 81.9% |
| COc1cc(CNc2ccc(C)c(Cl)c2)cc(Cl)c1OC [Compound A-21] | 57.5% |
| C#CCOc1c(Br)cc(CNc2ccc(Cl)c(Cl)c2)cc1OC [Compound A-24] | 16.3% |
| COc1cc(CNc2ccc(C)c(Cl)c2)cc(Cl)c1OC [Compound A-26] | <5% |

same assay, conditions: Table 4; 10 μM compound, then HGF, 24 hours; percentage like untreated controls (unstimulated cells = maximal effect, HGF only = nil)

| SMILES | Assay Value |
| --- | --- |
| Cc1nc(NC(=O)COc2ccc([N+](=O)[O-])cc2)ccc1Br [Compound B-1] | 97.1% |
